Reference: the NIST ThermoML archive (doi:10.1016/j.jct.2006.05.006)

Assay: xn = mol fraction of the nth substance listed
Details: 101 kPa, Liquid

CN1CCCC1=O [N-methylpyrrolidone] + c1ccccc1
Details	mass density [kg/m3]
293.15 K, x2 = 0	1032.66
293.15 K, x2 = 0.0434	1027.48
293.15 K, x2 = 0.1023	1020.3
293.15 K, x2 = 0.1625	1012.78
293.15 K, x2 = 0.2237	1004.93
293.15 K, x2 = 0.2834	997.06
293.15 K, x2 = 0.3457	988.6
293.15 K, x2 = 0.4015	980.8
293.15 K, x2 = 0.4865	968.47
293.15 K, x2 = 0.5421	960.08
293.15 K, x2 = 0.6154	948.61
293.15 K, x2 = 0.6854	937.17
293.15 K, x2 = 0.7549	925.31
293.15 K, x2 = 0.8254	912.73
293.15 K, x2 = 0.9002	898.74
293.15 K, x2 = 0.9772	883.6
303.15 K, x2 = 0	1023.42
303.15 K, x2 = 0.0444	1018.04
303.15 K, x2 = 0.1165	1009.11
303.15 K, x2 = 0.1854	1000.32
303.15 K, x2 = 0.2539	991.32
303.15 K, x2 = 0.3296	981.02
303.15 K, x2 = 0.3965	971.6
303.15 K, x2 = 0.4653	961.58
303.15 K, x2 = 0.5362	950.85
303.15 K, x2 = 0.6033	940.29
303.15 K, x2 = 0.6798	927.73
303.15 K, x2 = 0.7451	916.54
303.15 K, x2 = 0.8125	904.52
303.15 K, x2 = 0.8847	891.05
303.15 K, x2 = 0.9245	883.36
303.15 K, x2 = 0.9799	872.31
313.15 K, x2 = 0	1014.27
313.15 K, x2 = 0.0454	1008.7
313.15 K, x2 = 0.1054	1001.17
313.15 K, x2 = 0.1765	992
313.15 K, x2 = 0.2365	984.05
313.15 K, x2 = 0.2965	975.88
313.15 K, x2 = 0.3654	966.2
313.15 K, x2 = 0.4368	955.82
313.15 K, x2 = 0.5012	946.12
313.15 K, x2 = 0.5687	935.58
313.15 K, x2 = 0.6358	924.71
313.15 K, x2 = 0.6954	914.69
313.15 K, x2 = 0.7658	902.39
313.15 K, x2 = 0.8326	890.21
313.15 K, x2 = 0.9036	876.72
313.15 K, x2 = 0.9684	863.87
323.15 K, x2 = 0	1005.62
323.15 K, x2 = 0.0521	999.09
323.15 K, x2 = 0.1245	989.78
323.15 K, x2 = 0.1987	979.96
323.15 K, x2 = 0.2541	972.41
323.15 K, x2 = 0.3214	962.98
323.15 K, x2 = 0.3854	953.74
323.15 K, x2 = 0.4215	948.4
323.15 K, x2 = 0.4854	938.69
323.15 K, x2 = 0.5411	929.98
323.15 K, x2 = 0.6124	918.42
323.15 K, x2 = 0.6854	906.11
323.15 K, x2 = 0.7214	899.84
323.15 K, x2 = 0.7984	885.99
323.15 K, x2 = 0.8598	874.48
323.15 K, x2 = 0.9249	861.81
333.15 K, x2 = 0	996.28
333.15 K, x2 = 0.0451	990.55
333.15 K, x2 = 0.1025	983.11
333.15 K, x2 = 0.1632	975.06
333.15 K, x2 = 0.2302	965.93
333.15 K, x2 = 0.2987	956.32
333.15 K, x2 = 0.3512	948.74
333.15 K, x2 = 0.4215	938.29
333.15 K, x2 = 0.4865	928.31
333.15 K, x2 = 0.5521	917.9
333.15 K, x2 = 0.6213	906.51
333.15 K, x2 = 0.6895	894.85
333.15 K, x2 = 0.7451	885.02
333.15 K, x2 = 0.8145	872.3
333.15 K, x2 = 0.8865	858.55
333.15 K, x2 = 0.9654	842.8
343.15 K, x2 = 0	987.39
343.15 K, x2 = 0.0414	982.03
343.15 K, x2 = 0.1154	972.25
343.15 K, x2 = 0.1874	962.43
343.15 K, x2 = 0.2564	952.76
343.15 K, x2 = 0.3248	942.88
343.15 K, x2 = 0.3965	932.18
343.15 K, x2 = 0.4685	921.08
343.15 K, x2 = 0.5384	909.92
343.15 K, x2 = 0.5968	900.27
343.15 K, x2 = 0.6622	889.13
343.15 K, x2 = 0.7321	876.77
343.15 K, x2 = 0.7954	865.17
343.15 K, x2 = 0.8541	854.04
343.15 K, x2 = 0.9123	842.63
343.15 K, x2 = 0.9799	828.9
